What all share (format): in vivo, Rabbit (New Zealand)
Experiment [1] relates to MPO activity in iris-ciliary body. Description: Myeloperoxidase (MPO) activity in iris-ciliary body, rabbit paracentesis model. As to the method:
(§1) Each rabbit was placed in a restraint device and tagged with the alphanumeric code. The formulations were instilled (50 μl) into the conjunctival sac of both eyes 180, 120, 90 and 30 min before the first paracentesis; then 15, 30, 90 min after the first paracentesis. To perform the first paracentesis the animals were anaesthetized by intravenous injection of 5 mg/kg Zoletil® (Virbac; 2.5 mg/kg tiletamine HCl and 2.5 mg/kg zolazepam HCl) and one drop of local anesthetic (Novesina®, Novartis) was administered to the eye. Anterior chamber paracentesis was performed with a 26 G needle attached to a tuberculin syringe; the needle was introduced into the anterior chamber through the cornea, taking care not to damage the tissues. Two hours after the first paracentesis, the animals were sacrificed with 0.4 ml Tanax® (Intervet International B.V.) and the second paracentesis was performed. About 100 μl of aqueous humor were removed at the second paracentesis. Aqueous humor was immediately split in four aliquots and stored at −80° C. until analysis. Then both eyes were enucleated and the iris-ciliary body was carefully excised, placed in polypropylene tubes, and stored at −80° C. until analysis.
The activity of MPO was measured as previously described by Williams et al.[5] The iris-ciliary bodies were carefully dried, weighed and immersed in 1 ml of hexa-decyl-trimethyl-ammonium bromide solution. Then, the samples were sonicated for 10 sec on ice by a ultrasound homogenizer (HD 2070, Bandelin electronic), freeze-thawed three times, sonicated for 10 sec and centrifuged at 14,000 g for 10 min to remove cellular debris. An aliquot of the supernatant (40-200 μl) was diluted to 3 ml with the o-dianisidine 2HCl/H2O2 solution. The change in absorbance at 460 nm was continuously monitored for 5 min by a spectrophotometer (UV/Vis Spectrometer Lambda EZ 201; Perkin Elmer). The slope of the line (Δ/min) was determined for each sample and used to calculate the number of units of MPO in the tissue as follows:
Values were expressed as units of MPO/g of tissue.
(§2) Pupillary diameter, PGE2, protein, PMN, and MPO were expressed as mean±SEM. Statistical analysis was performed using one way ANOVA followed by a Newman-Keuls post hoc test. Clinical score was expressed as % of eyes and the statistical analysis was performed using Kruskal-Wallis followed by a Dunn post hoc test. P<0.05 was considered statistically significant in both cases. Prism 4 software (GraphPad Software, Inc.) was used for the analysis and graphs.

In experiment [2] the test system is leukocytes (PMN) in aqueous humor. Description: Leukocytes (PMN) measurement in aqueous humor, rabbit paracentesis model. Conditions: 0.5% formulation; second paracentesis; group mean. As to the method:
as §1
For the determination of the number of leukocytes we used a haernocytometer (Improved Neubauer Chamber; Bright-line, Hausser Scientific) and a Polyvar 2 microscope (Reichert-Jung).
as §2

Experiment [3] deals with PGE2 in the aqueous humor. Description: Prostaglandin E2 (PGE2) measurement in aqueous humor, rabbit paracentesis model. Conditions: 0.5% formulation. As to the method: as §1
For the quantitative determination of PGE2 in the aqueous humor we used the PGE2 Immunoassay kit (R&D Systems; Cat. No. KGE004; Lot. No. 240010). Eleven microliters or 16 μl of aqueous humor were diluted to 110 μl or 160 μl with the calibrator diluent solution provided with the kit. One hundred microliters of samples and of standards were load into a 96-well plate and recorded in a plate layout. Samples were treated following the assay procedure described in the kit. A microplate reader (GDV, Italy; model DV 990 B/V6) set at 450 nm (wavelength correction at 540 nm) was used for making the calibration and analyzing the samples.
as §2

Another experiment concerns pupillary diameter. Description: Pupillary diameter measurement, rabbit paracentesis model. Particulars: 0.5% formulation.
Experiment [4] deals with protein concentration in the aqueous humor. The experiment can be described thus: Protein measurement in aqueous humor, rabbit paracentesis model. Conditions: 0.5% formulation, second paracentesis. As to the method:
as §1
For protein concentration determination in the aqueous humor we used the Protein Quantification Kit (Fluka; Cat. No. 77371; Lot. No. 1303129). Five microliters of aqueous humor were diluted to 100 μl with water. Twenty microliters of samples and of standards were load into a 96-well plate and recorded in a plate layout. Samples were treated following the assay procedure described in the kit. A microplate reader (GDV, Italy; model DV 990 B/V6) set at 670 nm was used for making the calibration and analyzing the samples.
as §2

For experiment [5], the system named is iris and conjunctival vessels, anterior chamber. Description: Clinical evaluation by slit lamp (clinical score), rabbit paracentesis model. On the set-up: key to Clinical Score −180 min / Clinical Score −5 min / Clinical Score +115 min: 0=normal; 1=discrete dilatation of iris and conjunctival vessels; 2=moderate dilatation of iris and conjunctival vessels; 3=intense iridal hyperemia with flare in the anterior chamber; 4=intense iridal hyperemia with flare in the anterior chamber and presence of fibrinous exudates. Conditions: 0.5% formulation.

Setting [6] is: 5 min before the first paracentesis, raw data per eye.
Setting [7] is: 5 min before the second paracentesis, raw data per eye.

SMILES strings stand for the structures. “And” between values parts separate entries of the source, which are not always exact repeats. Equal values may be shown once.

As for `CCOC(=O)O[C@]1(C(=O)OCCl)CC[C@H]2[C@@H]3CCC4=CC(=O)C=C[C@]4(C)[C@H]3[C@@H](O)C[C@@]21C` [LE, loteprednol etabonate], the “MPO activity in iris-ciliary body” value in experiment [1] (0.5% LE, individual samples collected after the second paracentesis) is given as 1.01 Unit/g. For the same molecule, the “MPO activity in iris-ciliary body, Mean” value in experiment [1] (0.5% formulation, after the second paracentesis, group mean) is 0.661 MPO Unit/g. In experiment [2], the “PMN numbers in aqueous humor, Mean” value turned out to be 28.333 number/μl. Also, in experiment [3] (p<0.05), the “PGE2 in aqueous humor, statistical significance versus CTR” value is “statistically significant versus CTR”. For the same molecule, the “PGE2 level in aqueous humor, Mean” value in experiment [3] (second paracentesis, group mean) was found to be 0.672 ng/mL. In addition, the “Pupillary diameter T2: −5 min” value in the experiment with pupillary diameter (setting [6]) was 6.0 mm and 6.5 mm. The “Pupillary diameter T3: +115 min” value in the experiment with pupillary diameter (setting [7]) was 4.5 mm and 5.0 mm and 5.5 mm and 6.0 mm. In the experiment with pupillary diameter (basal, raw data per eye), the “Pupillary diameter T1: −180 min” value is 6.0 mm and 6.5 mm. Moreover, the “Mean (mm) Δ(T3 − T1) of pupillary diameter” value in the experiment on pupillary diameter (group mean, n=8 eyes) is −0.9 mm. For the same molecule, the “Protein level in aqueous humor, Mean” value in experiment [4] (group mean) is 33.905 mg/mL. Moreover, the “Protein level in aqueous humor, raw data” value in experiment [4] (per eye) was 36.14 mg/mL and 39.10 mg/mL and 34.69 mg/mL and 26.10 mg/mL and 26.30 mg/mL and 28.16 mg/mL and 40.90 mg/mL and 39.85 mg/mL. Besides, in experiment [5] (setting [6]), the “Clinical Score −5 min” value stood at 0. The “Clinical Score +115 min” value in experiment [5] (setting [7]) is 2 and 1. In experiment [5] (+115 min, N=8 eyes), the “Percentage of eyes with clinical score 1” value was 75% and the “Percentage of eyes with clinical score 2” value worked out at 25%. Also, the “Clinical Score −180 min” value in experiment [5] (basal, raw data per eye) was 0. Also, the “Clinical score, difference versus CTR (vehicle)” value in experiment [5] (p<0.05, Kruskal-Wallis, Dunn) is “significant difference versus CTR”. The “Percentage of eyes with clinical score 0” value in experiment [5] (−5 min, N=8 eyes) is recorded as 100%. The “Percentage of eyes with clinical score 0” value in experiment [5] (−180 min (basal), N=8 eyes) was 100%.

The values above are taken from US20120316199A1, “COMPOSITIONS AND METHODS FOR TREATING, CONTROLLING, REDUCING, OR AMELIORATING INFLAMMATORY PAIN” (priority 2011, published 2012).
